This is an account of results in patent publication US11084842B2 (SUNSHINE LAKE PHARMA CO., LTD., priority 2018, dated 2021).

The structures appear in SMILES notation.

The IC50 is the concentration that gives 50% inhibition. The low end stands for higher potency, the high end for lower potency.

In one experiment the test system is blood glucose of SD rats. As to the kind of experiment: Oral glucose tolerance test in SD rats (Test Method 2). It is filed as in vivo. Particulars: dosage 0.1 mg/kg by gavage, glucose 4.0 g/kg, decline rate of AUCGlu 0-60min. The procedure: The following methods were used to evaluate the effects of the compound of the invention on improving oral glucose tolerance and glycosuria excretion.
The weights and the fasting blood glucose levels of male SD rats were measured after an overnight 15-hours fast. The rats were grouped by their weights and fasting plasma glucose levels. […] After 30 minutes, the blood glucose level (i.e., zero point blood glucose) of each group was measured, and then each group was immediately administered glucose (4.0 g/kg) once by gavage. The blood was drawn from the caudal vein of the […] at 15, 30 and 60 minutes after glucose administration and the blood glucose levels were measured continuously on blood-glucose meter. The decline rate of the area under the blood sugar curve within 60 minutes (AUCGlu 0-60min) after sugar loading was calculated.
Take `Cc1ccc([C@]23OC[C@](C(C)(C)O)(O2)[C@@H](O)[C@H](O)[C@H]3O)cc1Cc1ccc(CCCC(=O)NC2(C(=O)NCCN(C)C)CCCCC2)cc1` [Example 16, N-(2-dimethylaminoethyl)-1-[4-[4-[[2-methyl-5-[(1S,2S,3S,4R,5S)-2,3,4-trihydroxy-1-(1-hydroxy-1-methyl-ethyl)-6,8-dioxabicyclo[3.2.1]octane-5-yl]phenyl]methyl]phenyl]butylamide]cyclohexyl carboxamide]: the “hypoglycemic rate (%)” value amounted to 30.93%.

The experiment is the same for the next values; noted with them: dosage 1 mg/kg by gavage, glucose 4.0 g/kg, decline rate of AUCGlu 0-60min.
`Cc1ccc([C@]23OC[C@](C(C)(C)O)(O2)[C@@H](O)[C@H](O)[C@H]3O)cc1Cc1ccc(CCCC(=O)NC(C)(C)C(=O)NCCN(C)C)cc1` [Example 2]: the “hypoglycemic rate (%)” value was determined as 31.64%. Regarding `Cc1ccc([C@]23OC[C@](C(C)(C)O)(O2)[C@@H](O)[C@H](O)[C@H]3O)cc1Cc1ccc(CCCC(=O)N[C@@H](C)C(=O)NCCN(C)C)cc1` [Example 6, N-[(1S)-2-(2-dimethylaminoethylamino)-1-methyl-2-oxo-ethyl]-4-[4-[[2-methyl-5-[(1S,2S,3S,4R,5S)-2,3,4-trihydroxy-1-(1-hydroxy-1-methyl-ethyl)-6,8-dioxabicyclo[3.2.1]octane-5-yl]phenyl]methyl]phenyl]butanamide], the “hypoglycemic rate (%)” value stood at 33.19%.

The next experiment deals with T1, human SGLT1 (Homo sapiens, UniProt P13866).
T1 construct: expressed in transfected cells; host or cells: CHO cells (FIP-in CHO; mock-transfected cells as control)
T1 sequence (P13866 1-664): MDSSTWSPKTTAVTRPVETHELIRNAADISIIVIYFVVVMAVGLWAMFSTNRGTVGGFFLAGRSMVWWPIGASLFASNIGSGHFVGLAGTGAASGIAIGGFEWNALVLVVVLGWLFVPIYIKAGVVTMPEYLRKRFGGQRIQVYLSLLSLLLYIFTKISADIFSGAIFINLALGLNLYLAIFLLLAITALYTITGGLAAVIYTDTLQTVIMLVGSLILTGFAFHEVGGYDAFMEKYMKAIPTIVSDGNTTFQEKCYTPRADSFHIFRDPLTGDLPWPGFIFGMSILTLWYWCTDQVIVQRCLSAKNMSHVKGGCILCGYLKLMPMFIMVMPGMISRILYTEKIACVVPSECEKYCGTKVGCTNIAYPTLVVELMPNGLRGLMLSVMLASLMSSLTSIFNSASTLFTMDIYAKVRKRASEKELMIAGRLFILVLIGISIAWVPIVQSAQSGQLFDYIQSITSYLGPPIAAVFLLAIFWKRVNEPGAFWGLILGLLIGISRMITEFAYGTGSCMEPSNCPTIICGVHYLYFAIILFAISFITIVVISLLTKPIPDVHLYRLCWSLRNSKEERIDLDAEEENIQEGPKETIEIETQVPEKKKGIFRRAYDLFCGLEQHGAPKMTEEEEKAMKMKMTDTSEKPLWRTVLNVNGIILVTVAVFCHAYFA
Description: Test of inhibitory activity on SGLT1 ([14C]-AMG uptake in CHO cells expressing human SGLT1). Particulars: CHO cells expressing human SGLT1, 0.5 μM [14C]-AMG, 37° C., 1 hour. The format is cell-based. The procedure:
The following methods can be used to determine the inhibitory activity of the compound of the invention on SGLT-1.
Mock-transfected FIP-in CHO cells (3×10^4 cells) and expressing human SGLT1 CHO cells were seeded into 96-well plates respectively. The cells were incubated for 12 hours. Each well of the 96-well plate was washed with 150 μL of sodium-free buffer once. To each well was added 50 μL of sodium-containing buffer containing test compounds having different concentrations and 0.5 μM [^14C]-AMG. The incubation mixture was incubated at 37° C. for 1 hour. To each well was added 150 μL of precooled sodium-free buffer to terminate the reaction. The cell pellet was washed with sodiumfree buffer three times and the residual liquid in well was removed. To each well was added 20 μL of precooled 100 mM NaOH. The 96-well plate was vibrated at 900 rpm for 5 minutes. Scintillation fluid (80 μL) was added to each well which was then vibrated at 600 rpm for 5 minutes. The amount of ^14C-AMG was quantitatively detected using liquid scintillation.
`CCC(CC)(NC(=O)CCCc1ccc(Cc2cc([C@]34OC[C@](C(C)(C)O)(O3)[C@@H](O)[C@H](O)[C@H]4O)ccc2C)cc1)C(=O)NCCN(C)C` [Example 12, N-(2-dimethylaminoethyl)-2-ethyl-2-[4-[4-[[2-methyl-5-[(1S,2S,3S,4R,5S)-2,3,4-trihydroxy-1-(1-hydroxy-1-methyl-ethyl)-6,8-dioxabicyclo[3.2.1]octane-5-yl]phenyl]methyl]phenyl]butanamido]butanamide] had an IC50 of 1.51 nM.

`Cc1ccc([C@]23OC[C@](C)(O2)[C@@H](O)[C@H](O)[C@H]3O)cc1Cc1ccc(CCCC(=O)NC2(C(=O)NCCN(C)C)CCC2)cc1` [Example 17, N-(2-dimethylaminoethyl)-1-[4-[4-[[2-methyl-5-[(1S,2S,3S,4R,5S)-2,3,4-trihydroxy-1-methyl-6,8-dioxabicyclo[3.2.1]octane-5-yl]phenyl]methyl]phenyl]butanamido]cyclobutyl carboxamide] returned an IC50 of 0.4 nM. The same measure, in the same setting: then `Cc1ccc([C@]23OC[C@](C)(O2)[C@@H](O)[C@H](O)[C@H]3O)cc1Cc1ccc(OCCCC(=O)NC2(C(=O)NCCN(C)C)CCCCC2)cc1` [Example 21, N-(2-dimethylaminoethyl)-1-[4-[4-[[2-methyl-5-[(1S,2S,3S,4R,5S)-2,3,4-trihydroxy-1-methyl-6,8-dioxabicyclo[3.2.1]octane-5-yl]phenyl]methyl]phenoxy]butanamido]cyclohexylcarboxamide], with 0.6 nM; and `Cc1ccc([C@]23OC[C@](C(C)(C)O)(O2)[C@@H](O)[C@H](O)[C@H]3O)cc1Cc1ccc(CCCC(=O)N[C@H](C(=O)NCCN(C)C)C2CC2)cc1` [Example 10, N-[(1S)-1-cyclopropyl-2-(2-dimethylaminoethylamino)-2-oxo-ethyl]-4-[4-[[2-methyl-5-[(1S,2S,3S,4R,5S)-2,3,4-trihydroxy-1-(1-hydroxy-1-methyl-ethyl)-6,8-dioxabicyclo[3.2.1]octane-5-yl]phenyl]methyl]phenyl]butanamide], with 1.61 nM.

Take `Cc1ccc([C@]23OC[C@](C)(O2)[C@@H](O)[C@H](O)[C@H]3O)cc1Cc1ccc(CCCC(=O)NC(C)(C)C(=O)NCCN(C)C)cc1` [Example 13]: the half-maximal inhibitory concentration (IC50) was 2.9 nM.

For `CC[C@@]12CO[C@@](c3ccc(C)c(Cc4ccc(CCCC(=O)NC(C)(C)C(=O)NCCN(C)C)cc4)c3)(O1)[C@H](O)[C@@H](O)[C@@H]2O` [Example 14, N-(2-dimethylaminoethyl)-2-[4-[4-[[5-[(1S,2S,3S,4R,5S)-1-ethyl-2,3,4-trihydroxy-6,8-dioxabicyclo[3.2.1]octane-5-yl]-2-methyl-phenyl]methyl]phenyl]butanamido]-2-methyl-propionamide], half-maximal inhibition (IC50) was put at 0.57 nM. Same read-out and setting: to `Cc1ccc([C@]23OC[C@](C(C)(C)O)(O2)[C@@H](O)[C@H](O)[C@H]3O)cc1Cc1ccc(CCCC(=O)NC2(C(=O)NCCN(C)C)CCC2)cc1` [Example 11] belongs 0.23 nM; to `Cc1ccc([C@]23OC[C@](C)(O2)[C@@H](O)[C@H](O)[C@H]3O)cc1Cc1ccc(CCCC(=O)NC2(C(=O)NCCN(C)C)CCCCC2)cc1` [Example 18], 0.43 nM; to `Cc1ccc([C@]23OC[C@](C(C)(C)O)(O2)[C@@H](O)[C@H](O)[C@H]3O)cc1Cc1ccc(CCCC(=O)NC2(C(=O)NCCN(C)C)CCCC2)cc1` [Example 8, N-(2-dimethylaminoethyl)-1-[4-[4-[[2-methyl-5-[(1S,2S,3S,4R,5S)-2,3,4-trihydroxy-1-(1-hydroxy-1-methyl-ethyl)-6,8-dioxabicyclo[3.2.1]octane-5-yl]phenyl]methyl]phenyl]butylamide]cyclopentyl formamide], 0.24 nM. Still for that read-out and setting: then `Cc1ccc([C@]23OC[C@](C)(O2)[C@@H](O)[C@H](O)[C@H]3O)cc1Cc1ccc(OCCCC(=O)NC2(C(=O)NCCN(C)C)CCC2)cc1` [Example 20, N-(2-dimethylaminoethyl)-1-[4-[4-[[2-methyl-5-[(1S,2S,3S,4R,5S)-2,3,4-trihydroxy-1-methyl-6,8-dioxabicyclo[3.2.1]octane-5-yl]phenyl]methyl]phenoxy]butanamido]cyclobutyl carboxamide], with 0.55 nM. On the same count and under the same terms, then `Cc1ccc([C@]23OC[C@](C(C)(C)O)(O2)[C@@H](O)[C@H](O)[C@H]3O)cc1Cc1ccc(CCCC(=O)NC2(C(=O)NCCN(C)C)CCCCC2)cc1` [Example 16, N-(2-dimethylaminoethyl)-1-[4-[4-[[2-methyl-5-[(1S,2S,3S,4R,5S)-2,3,4-trihydroxy-1-(1-hydroxy-1-methyl-ethyl)-6,8-dioxabicyclo[3.2.1]octane-5-yl]phenyl]methyl]phenyl]butylamide]cyclohexyl carboxamide], with 0.47 nM.
